Patent US8431563B2 (priority 2010, dated 2013)

Experiments:
[1] = molecular target: T1, GKRP (Glucokinase Regulatory Protein) with human His-hepatic GK (Homo sapiens, UniProt Q14397); assay: GKRP LC MS/MS Biochemical Assay; settings: 13C-glucose-6-phosphate formation, 1 μM GKRP (10×), 30 nM GK (5×)
T1 sequence (Q14397 1-625): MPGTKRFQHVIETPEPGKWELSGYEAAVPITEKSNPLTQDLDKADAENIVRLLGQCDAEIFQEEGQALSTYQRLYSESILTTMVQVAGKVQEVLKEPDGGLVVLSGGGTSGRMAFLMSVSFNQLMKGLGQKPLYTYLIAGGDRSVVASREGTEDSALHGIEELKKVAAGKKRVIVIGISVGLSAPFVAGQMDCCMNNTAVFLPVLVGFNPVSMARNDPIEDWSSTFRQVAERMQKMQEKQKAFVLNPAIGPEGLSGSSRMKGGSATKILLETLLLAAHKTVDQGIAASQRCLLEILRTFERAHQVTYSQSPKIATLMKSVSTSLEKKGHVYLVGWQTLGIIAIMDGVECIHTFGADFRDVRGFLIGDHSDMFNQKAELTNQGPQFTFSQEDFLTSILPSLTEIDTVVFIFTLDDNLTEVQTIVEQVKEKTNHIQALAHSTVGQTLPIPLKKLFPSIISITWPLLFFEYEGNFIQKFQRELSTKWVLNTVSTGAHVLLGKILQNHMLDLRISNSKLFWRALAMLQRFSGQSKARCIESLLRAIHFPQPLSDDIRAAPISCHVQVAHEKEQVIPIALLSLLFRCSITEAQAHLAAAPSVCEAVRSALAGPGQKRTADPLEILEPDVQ
Description: GKRP LC MS/MS Biochemical Assay
(§1) This assay is used to directly measure the formation of ^13C-glucose-6-phosphate from ^13C-glucose by liquid chromatography-mass spectrometry (LC MS/MS). Begin by preparing the following solutions: Compound Buffer (CB): 50 mM Tris, pH 7.5/4 mM MgCl2/6% DMSO/fresh 10 mM DTT from 1M frozen stock. Enzyme Buffer (EB): 50 mM Tris, pH 7.5/4 mM MgCl2/6% DMSO/fresh 0.1% BSA/fresh 0.01% Brij-35 (10% BSA and 1% Brij-35 stock). GK (Glucokinase) Working Stock (5×): Dilute human His-hepatic GK to 30 nM in EB buffer. […] After 30 minutes add 10 μl of GK Working Stock (5×). Re-seal the plate and incubate for another 30 minutes at room temperature while mixing. After the second 30 minutes, stop the reaction by the addition of 50 μl of 100% acetonitrile, seal, and mix for 5-10 minutes. Run 10 μl of this sample through the LC MS/MS (API 3200, Applied Biosystems Inc., Carlsbad, Calif.).

[2] = molecular target: T1, GKRP (Glucokinase Regulatory Protein) with human His-hepatic GK; assay: GKRP NADPH Coupled Assay; format: biochemical; settings: indirect measure of glucose-6-phosphate, fluorescence, 1 μM GKRP (10×), 20 nM GK (5×)
Description: as §1
This assay is used as an indirect measure of glucose-6-phosphate (G6P) formed from glucose due to the enzymatic activity of glucokinase. Assay format is the same as for GKRP LC MS/MS Biochemical Assay with the following exceptions. GK Working Stock (5×): Dilute human His-hepatic GK to 20 nM in EB buffer. Stop & Detection Reagent (2×): Dilute β-nicotinamide adenine dinucleotide phosphate sodium salt (β-NADP) (Aldrich-Sigma, St. Louis, Mo.) to 2 mM from 100 mM stock (stock in 10 mM Tris, pH 9.2) and dilute glucose-6-phosphate dehydrogenase (Aldrich-Sigma, St. Louis, Mo.) to 0.04 Unit/μl from 10 Unit/μl (stock in 10 mM Tris pH 7.5/0.05% Brij-35) in 0.2 M Tris, pH 9.2/8% DMSO. After the initial 30 minute incubation add 10 μl of 20 nM GK diluted in EB (5×). Re-seal the plate and incubate for another 1 hour at room temperature while mixing. After 1 hour remove the seal and add 50 μl of Stop & Detection Reagent and incubate for 5 minutes at room temperature while mixing.

[3] = read-out: GK-GKRP EC50 (LC MS/MS)
[4] = read-out: GK-GKRP EC50 (NADPH-coupled)

`CC(O)(c1ccc(N2CCN(S(=O)(=O)c3cccs3)CC2c2cc(Cl)ccc2Cl)cc1)C(F)(F)F` (mixture of isomers) [Example 13, 2-(4-(2-(2,5-dichlorophenyl)-4-(2-thiophenylsulfonyl)-1-piperazinyl)phenyl)-1,1,1-trifluoro-2-propanol] was tested, and the EC50 ([1]; GK-GKRP EC50 (LC MS/MS)) was 1.96 µM and the EC50 ([2]; GK-GKRP EC50 (NADPH-coupled)) was 2.64 µM.
With `C[C@H]1CN(S(=O)(=O)c2ccccc2)CCN1c1ccc(C(C)(O)C(F)(F)F)cc1` (mixture of isomers) [Example 28, 1,1,1-trifluoro-2-(4-((2S)-2-methyl-4-(phenylsulfonyl)-1-piperazinyl)phenyl)-2-propanol] the EC50 ([1]; GK-GKRP EC50 (LC MS/MS)) was 4.01 µM and the EC50 ([2]; GK-GKRP EC50 (NADPH-coupled)) was 3.12 µM.
In the case of `C[C@H]1CN(S(=O)(=O)c2nnc(N)s2)CCN1c1ccc(C(C)(O)C(F)(F)F)cc1` (mixture of isomers) [Example 35, 2-(4-((2S)-4-((5-amino-1,3,4-thiadiazol-2-yl)sulfonyl)-2-methyl-1-piperazinyl)phenyl)-1,1,1-trifluoro-2-propanol], the EC50 ([1]; GK-GKRP EC50 (LC MS/MS)) is reported as 5.62 µM and the EC50 ([2]; GK-GKRP EC50 (NADPH-coupled)) is reported as 3.04 µM.
Molecule `CC(O)(c1ccc(N2CCN(S(=O)(=O)c3cccs3)CC2Cc2ccccc2F)cc1)C(F)(F)F` (mixture of isomers) [Example 38, 1,1,1-trifluoro-2-(4-(2-(2-fluorobenzyl)-4-(2-thiophenylsulfonyl)-1-piperazinyl)phenyl)-2-propanol] has an EC50 ([1]; GK-GKRP EC50 (LC MS/MS)) of 0.85 µM and an EC50 ([2]; GK-GKRP EC50 (NADPH-coupled)) of 0.515 µM.
`CC(O)(c1ccc(N2CCN(S(=O)(=O)c3cccs3)CC2Cc2cccc(F)c2)cc1)C(F)(F)F` (mixture of isomers) [Example 39, 1,1,1-trifluoro-2-(4-(2-(3-fluorobenzyl)-4-(2-thiophenylsulfonyl)-1-piperazinyl)phenyl)-2-propanol] showed an EC50 ([1]; GK-GKRP EC50 (LC MS/MS)) of 1.09 µM and an EC50 ([2]; GK-GKRP EC50 (NADPH-coupled)) of 0.802 µM.
With `CC(O)(c1ccc(N2CCN(S(=O)(=O)c3cccs3)CC2Cc2ccc(F)cc2)cc1)C(F)(F)F` (mixture of isomers) [Example 40, 1,1,1-trifluoro-2-(4-(2-(4-fluorobenzyl)-4-(2-thiophenylsulfonyl)-1-piperazinyl)phenyl)-2-propanol] the EC50 ([1]; GK-GKRP EC50 (LC MS/MS)) was 1.25 µM and the EC50 ([2]; GK-GKRP EC50 (NADPH-coupled)) was 0.895 µM.
Work on `CC(O)(c1ccc(N2CCN(S(=O)(=O)c3cccs3)CC2COCc2ccccc2)cc1)C(F)(F)F` (mixture of isomers) [Example 44 Step 5, 2-(4-(2-((benzyloxy)methyl)-4-(2-thiophenylsulfonyl)-1-piperazinyl)phenyl)-1,1,1-trifluoro-2-propanol] yielded an EC50 ([1]; GK-GKRP EC50 (LC MS/MS)) of 0.617 µM and an EC50 ([2]; GK-GKRP EC50 (NADPH-coupled)) of 0.42 µM.
`CC1(C)CN(CC2CN(S(=O)(=O)c3cccs3)CCN2c2ccc(C(C)(O)C(F)(F)F)cc2)CCO1` (mixture of isomers) [Example 47, 2-(4-(2-((2,2-dimethyl-4-morpholinyl)methyl)-4-(2-thiophenylsulfonyl)-1-piperazinyl)phenyl)-1,1,1-trifluoro-2-propanol] showed an EC50 ([1]; GK-GKRP EC50 (LC MS/MS)) of 0.295 µM and an EC50 ([2]; GK-GKRP EC50 (NADPH-coupled)) of 0.182 µM.
Work on `CC(O)(c1ccc(N2CCN(S(=O)(=O)c3cccs3)CC2CN2CCOCC2CO)cc1)C(F)(F)F` (mixture of isomers) [Example 48, 1,1,1-trifluoro-2-(4-(2-((3-(hydroxymethyl)-4-morpholinyl)methyl)-4-(2-thiophenylsulfonyl)-1-piperazinyl)phenyl)-2-propanol] yielded an EC50 ([1]; GK-GKRP EC50 (LC MS/MS)) of 0.606 µM and an EC50 ([2]; GK-GKRP EC50 (NADPH-coupled)) of 0.389 µM.
For `CC1CN(CC2CN(S(=O)(=O)c3cccs3)CCN2c2ccc(C(C)(O)C(F)(F)F)cc2)CCO1` (mixture of isomers) [Example 49, 1,1,1-trifluoro-2-(4-(2-((2-methyl-4-morpholinyl)methyl)-4-(2-thiophenylsulfonyl)-1-piperazinyl)phenyl)-2-propanol], the EC50 ([1]; GK-GKRP EC50 (LC MS/MS)) was 0.707 µM and the EC50 ([2]; GK-GKRP EC50 (NADPH-coupled)) was 0.647 µM.
Work on `CC(O)(c1ccc(N2CCN(S(=O)(=O)c3cccs3)CC2CN2CCC(F)(F)CC2)cc1)C(F)(F)F` (mixture of isomers) [Example 51, 2-(4-(2-((4,4-difluoro-1-piperidinyl)methyl)-4-(2-thiophenylsulfonyl)-1-piperazinyl)phenyl)-1,1,1-trifluoro-2-propanol] yielded an EC50 ([1]; GK-GKRP EC50 (LC MS/MS)) of 1.53 µM and an EC50 ([2]; GK-GKRP EC50 (NADPH-coupled)) of 1.05 µM.
`CC(O)(c1ccc(N2CCN(S(=O)(=O)c3cccs3)CC2CN2CCOC(CO)C2)cc1)C(F)(F)F` (mixture of isomers) [Example 52, 1,1,1-trifluoro-2-(4-(2-((2-(hydroxymethyl)-4-morpholinyl)methyl)-4-(2-thiophenylsulfonyl)-1-piperazinyl)phenyl)-2-propanol] was tested, and the EC50 ([1]; GK-GKRP EC50 (LC MS/MS)) was 1.17 µM and the EC50 ([2]; GK-GKRP EC50 (NADPH-coupled)) was 1.62 µM.
`CC(O)(c1ccc(N2CCN(S(=O)(=O)c3cccs3)CC2CN2CC(O)C2)cc1)C(F)(F)F` (mixture of isomers) [Example 53, 1-((4-(2-thiophenylsulfonyl)-1-(4-(2,2,2-trifluoro-1-hydroxy-1-methylethyl)phenyl)-2-piperazinyl)methyl)-3-azetidinol] showed an EC50 ([1]; GK-GKRP EC50 (LC MS/MS)) of 1.79 µM and an EC50 ([2]; GK-GKRP EC50 (NADPH-coupled)) of 2.26 µM.
With `CC(C)(CO)NCC1CN(S(=O)(=O)c2cccs2)CCN1c1ccc(C(C)(O)C(F)(F)F)cc1` (mixture of isomers) [Example 54, 2-methyl-2-(((4-(2-thiophenylsulfonyl)-1-(4-(2,2,2-trifluoro-1-hydroxy-1-methylethyl)phenyl)-2-piperazinyl)methyl)amino)-1-propanol] the EC50 [1, 3] was 2.78 µM and the EC50 [2, 4] was 2.97 µM.
`CC(O)(c1ccc(N2CCN(S(=O)(=O)c3cccs3)CC2CC#N)cc1)C(F)(F)F` (mixture of isomers) [Example 55, (4-(2-thiophenylsulfonyl)-1-(4-(2,2,2-trifluoro-1-hydroxy-1-methylethyl)phenyl)-2-piperazinyl)acetonitrile] was tested, and the EC50 [1, 3] was 3.94 µM and the EC50 [2, 4] was 3.03 µM.
`CC(C)CC1CN(S(=O)(=O)c2cccs2)CCN1c1ccc(C(C)(O)C(F)(F)F)cc1` (mixture of isomers) [Example 57, 1,1,1-trifluoro-2-(4-(2-(2-methylpropyl)-4-(2-thiophenylsulfonyl)-1-piperazinyl)phenyl)-2-propanol] was tested, and the EC50 [1, 3] was 1.02 µM and the EC50 [2, 4] was 0.655 µM.
In the case of `CC(O)(c1ccc(N2CCN(S(=O)(=O)c3cccs3)CC2CC2CCCCC2)cc1)C(F)(F)F` (mixture of isomers) [Example 58, 2-(4-(2-(cyclohexylmethyl)-4-(2-thiophenylsulfonyl)-1-piperazinyl)phenyl)-1,1,1-trifluoro-2-propanol], the EC50 [1, 3] is reported as 1.32 µM and the EC50 [2, 4] is reported as 1 µM.
`CC(O)(c1ccc(N2CCN(S(=O)(=O)c3cccs3)CC2COCc2cccnc2)cc1)C(F)(F)F` (mixture of isomers) [Example 59, 1,1,1-trifluoro-2-(4-(2-((3-pyridinylmethoxy)methyl)-4-(2-thiophenylsulfonyl)-1-piperazinyl)phenyl)-2-propanol] showed an EC50 ([1]; GK-GKRP EC50 (LC MS/MS)) of 4.93 µM and an EC50 ([2]; GK-GKRP EC50 (NADPH-coupled)) of 4.93 µM.
Work on `CC(O)(c1ccc(N2CCN(S(=O)(=O)c3cccs3)CC2CN2CCOCC2)cc1)C(F)(F)F` (mixture of isomers) [Example 61, 1,1,1-trifluoro-2-(4-(2-(4-morpholinylmethyl)-4-(2-thiophenylsulfonyl)-1-piperazinyl)phenyl)-2-propanol] yielded an EC50 ([1]; GK-GKRP EC50 (LC MS/MS)) of 0.355 µM and an EC50 ([2]; GK-GKRP EC50 (NADPH-coupled)) of 0.23 µM.
For `O=S(=O)(c1ccccc1)N1CCN(c2ncc(C(O)(C(F)(F)F)C(F)(F)F)cn2)CC1` [Example 23, 1,1,1,3,3,3-hexafluoro-2-(2-(4-(phenylsulfonyl)-1-piperazinyl)-5-pyrimidinyl)-2-propanol], the EC50 ([1]; GK-GKRP EC50 (LC MS/MS)) was 1.31 µM.
